Results on eight compounds are retold here after US20100292233A1, “DIHYDRO-1H-PYRROLO[1,2-A]INDOL-1-YL CARBOXYLIC ACID DERIVATIVES WHICH ACT AS S1P1 AGONISTS” (ARENA PHARMACEUTICALS, INC., priority 2008, published 2010).

One data set addresses T1, S1P3 receptor (Homo sapiens, UniProt Q99500).
T1 construct: a human neuroblastoma cell line which endogenously expresses S1P3 (predominantly), S1P2 and S1P5 receptors
In words: Cellular/functional Ca2+ assay for agonist activity on S1P3 receptor. As to conditions: human neuroblastoma cells; FIG. 1; done by Caliper LifeSciences. The class given is cell-based. As for the experimental part:
Of these, S1P3 and S1P2 receptors respond to agonists, such as S1P, with an intracellular calcium increase. […] Such an assay can be performed commercially, e.g. by Caliper LifeSciences (Hopkinton, Mass.).
Assay: Compound 2 (Enantiomer 1) was assayed for agonist activity on S1P3 receptor by Caliper LifeSciences. Human neuroblastoma cells were washed and resuspended in physiological buffer. The cells were then loaded with dye that measures intracellular calcium. S1P was used as a reference agonist. Compound 2 (Enantiomer 1) was included in the assay as a test compound. After addition of […] or Compound 2 (Enantiomer 1), fluorescence was measured at 485 nm excitation/525 nm emission every 2 sec for at least 60 sec. Calcium ionophore A23187 was then added as an internal positive control.

For the next data set, the target named is T2, S1P1 receptor (Homo sapiens, UniProt P21453).
T2 construct: expressed in transfected cells; host or cells: CHO-K1 (ATCC CCL-61)
In words: HTRF assay for direct cAMP measurement (S1P1 receptor agonism). The class given is cell-based. Conditions: recombinant CHO-K1 cells stably transfected with S1P1 receptor; decrease of cAMP. An excerpt: Compounds were screened for S1P1 receptor agonism (e.g., human S1P1 receptor) using the HTRF® assay for direct cAMP measurement (Gabriel et al, ASSAY and Drug Development Technologies, 1:291-303, 2003) and recombinant CHO-K1 cells stably transfected with S1P1 receptor. CHO-K1 cells were obtained from ATCC® (Manassas, Va.; Catalog #CCL-61). An agonist of the S1P1 receptor was detected in the HTRF® assay for direct cAMP measurement as a compound which decreased cAMP concentration. The HTRF® assay also was used to determine EC50 values for S1P1 receptor agonists.
Principle of the assay: The HTRF® assay kit was purchased from Cisbio-US, Inc. (Bedford, Mass.; Catalog #62AM4PEC). The HTRF® assay supported by the kit is a competitive immunoassay between endogenous cAMP produced by the CHO-K1 cells and tracer cAMP labeled with the dye d2. The tracer binding is visualized by a monoclonal anti-cAMP antibody labeled with Cryptate. The specific signal (i.e., fluorescence resonance energy transfer, FRET) is inversely proportional to the concentration of unlabeled cAMP in the standard or sample.
Standard curve: The fluorescence ratio (665 nm/620 nm) of the standards (0.17 to 712 nM cAMP) included in the assay was calculated and used to generate a cAMP standard curve according to the kit manufacturer's instructions. The fluorescence ratio of the samples (test compound or compound buffer) was calculated and used to deduce respective cAMP concentrations by reference to the cAMP standard curve.
Setup of the assay: The HTRF® assay was carried out using a two-step protocol essentially according to the kit manufacturer's instructions, in 20 μl total volume per well, 384-well plate format (ProxiPlates; PerkinElmer, Fremont, Calif.; catalog #6008280). To each of the experimental wells was transferred 1500 recombinant CHO-K1 cells in 5 μl phosphate buffered saline containing calcium chloride and magnesium chloride (“PBS+”; Invitrogen, Carlsbad, Calif.; catalog #14040) supplemented with IBMX (250 μM) and rolipram (20 μM) (phosphodiesterase inhibitors; Sigma-Aldrich, St. Louis, Mo.; catalog #I5879 and catalog #R6520, respectively), followed by test compound in 5 μl compound buffer (PBS+ supplemented with […] NKH477 (water-soluble forskolin derivative; SignaGen Laboratories, Gaithersburg, Md.; catalog #PKI-NKH477-010)) or 5 μl compound buffer. The plate was then incubated at room temperature for 1 hour. To each well was then added 5 μl cAMP-d2 conjugate in lysis buffer and 5 μl Cryptate conjugate in lysis buffer according to the kit manufacturer's instructions. The plate was then further incubated at room temperature for 1 hour, after which the assay plate was read.
Assay readout: HTRF® readout was accomplished using a PHERAstar (BMG LABTECH Inc., Durham, N.C.) or EnVision™ (PerkinElmer, Fremont, Calif.) microplate reader.
On the technique in general: In TR-FRET formats the signal depends on donor and acceptor labels being close together.

The test system of the next data set is C57BL/6 mice. Conditions: prophylactic oral administration, 1 mg/kg, three times a week; cited from earlier work.
For a further data set, the system named is mice. Conditions: oral administration to mice; cited from earlier work.
The conditions of data set [1]: attributed to agonism of the S1P3 receptor; cited from earlier work.
For data set [2] the following is noted: short-term high dose; cited from earlier work.
Data set [3] concerns patients with multiple sclerosis. Conditions: Phase II, relapsing-remitting multiple sclerosis; cited from earlier work.
The subject of another data set is BALB/c mice. The experiment in a line: Mouse peripheral lymphocyte lowering (PLL) assay. The class given is in vivo. As to conditions: 1 mg/kg i.v., 5 hours post dose, FIG. 2. Here is the method:
Animals: Male BALB/c mice (6 to 7 weeks of age at start of study) (Charles River Laboratories, Wilmington, Mass.) were housed four per cage and maintained in a humidity—(40-60%) and temperature—(68-72° F.) controlled facility on a 12 hr:12 hr light/dark cycle (lights on at 6:30 am) with free access to food (Harlan Teklad, Orange, Calif., Rodent Diet 8604) and water. Mice were allowed one week of habituation to the animal facility before testing.
PLL Assay: Mice were administered via i.v. one of the following: vehicle (100% PEG400) or 1 mg/kg Compound 1 in vehicle, in a total volume of 5 mL/kg. Peripheral blood samples were collected at 5 hours post dose. The mice were anesthetized with isoflurane and bled retro-orbitally (300 μL) into 1.5 ml EDTA tubes. A complete […] (CBC) (including lymphocyte count) was obtained using CELL-DYN® 3700 (Abbott Laboratories, Abbott Park, Ill.). Results are presented in FIG. 2, in which the peripheral blood lymphocyte (PBL) count is shown for the 5 hour group.

Entries after “also recorded” stand apart in the source; their conditions may differ.

T1 sequence (Q99500 whole entry): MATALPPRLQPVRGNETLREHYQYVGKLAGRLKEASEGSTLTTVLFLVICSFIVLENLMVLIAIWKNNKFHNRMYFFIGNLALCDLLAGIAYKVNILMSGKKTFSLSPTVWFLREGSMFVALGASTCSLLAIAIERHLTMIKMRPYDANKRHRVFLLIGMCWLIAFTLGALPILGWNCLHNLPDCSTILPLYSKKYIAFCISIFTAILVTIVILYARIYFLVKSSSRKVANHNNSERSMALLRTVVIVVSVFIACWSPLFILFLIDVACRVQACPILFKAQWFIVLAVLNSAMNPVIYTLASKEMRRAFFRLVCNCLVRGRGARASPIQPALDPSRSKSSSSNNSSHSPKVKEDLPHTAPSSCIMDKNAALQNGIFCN
T2 sequence (P21453 whole entry): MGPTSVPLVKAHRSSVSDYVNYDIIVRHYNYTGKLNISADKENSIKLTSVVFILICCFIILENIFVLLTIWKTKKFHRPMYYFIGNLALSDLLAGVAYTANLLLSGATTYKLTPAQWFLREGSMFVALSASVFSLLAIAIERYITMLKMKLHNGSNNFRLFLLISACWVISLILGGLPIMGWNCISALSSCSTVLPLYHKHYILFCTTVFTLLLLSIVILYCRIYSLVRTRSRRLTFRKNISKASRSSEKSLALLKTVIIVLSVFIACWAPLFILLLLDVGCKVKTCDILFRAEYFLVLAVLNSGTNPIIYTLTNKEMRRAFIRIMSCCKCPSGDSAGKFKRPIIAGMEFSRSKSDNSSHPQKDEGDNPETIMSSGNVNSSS

For `CNc1ccc2oc(C[C@H]3O[C@@]4(CC[C@H]3C)O[C@H]([C@H](C)C(=O)c3ccc[nH]3)[C@H](C)C[C@H]4C)nc2c1C(=O)O` [Compound A23187, reference compound], the “agonist activity on S1P3 receptor (intracellular calcium)” value at S1P3 receptor is “pronounced agonist activity”. `N#Cc1cc(-c2nc(-c3ccc4c(c3)cc3n4CCC3CC(=O)O)no2)ccc1OCC(F)(F)F` (stereo not shown) [Compound 15, 2-(7-(5-(3-Cyano-4-(2,2,2-trifluoroethoxy)phenyl)-1,2,4-oxadiazol-3-yl)-2,3-dihydro-1H-pyrrolo[1,2-a]indol-1-yl)acetic Acid]: the EC50 at S1P1 receptor was 6.3 nM. For the compound `CCCCCCCCc1ccc(CCC(N)(CO)CO)cc1` [FTY720], the “development of EAMG” value in the data set with C57BL/6 mice is on record as “completely prevented the development of experimental autoimmune myasthenia gravis (EAMG)”. For the same compound, in the data set on mice, the VEGF-induced vascular permeability result is on record as “potently blocked VEGF-induced vascular permeability”. Further, in data set [1], the “adverse event in clinical trials” value was “transient asymptomatic bradycardia”. Besides, the ocular infiltrates entry in data set [2] is “rapidly reduced ocular infiltrates”. Also, in data set [3], the “MRI lesions and clinical disease activity” value is “reduce the number of lesions detected by magnetic resonance imaging (MRI) and clinical disease activity”.

`O=C(O)CC1CCn2c1cc1cc(-c3noc(-c4cc(Br)cc(OC(F)(F)F)c4)n3)ccc12` (stereo not shown) [Compound 18, 2-(7-(5-(3-Bromo-5-(trifluoromethoxy)phenyl)-1,2,4-oxadiazol-3-yl)-2,3-dihydro-1H-pyrrolo[1,2-a]indol-1-yl)acetic Acid]: at S1P1 receptor, the EC50 was found to be 13 nM. For `O=C(O)CC1CCn2c1cc1cc(-c3noc(-c4ccc5c(c4)OC(F)(F)O5)n3)ccc12` (stereo not shown) [Compound 8, 2-(7-(5-(2,2-Difluorobenzo[d][1,3]dioxol-5-yl)-1,2,4-oxadiazol-3-yl)-2,3-dihydro-1H-pyrrolo[1,2-a]indol-1-yl)acetic Acid], at S1P1 receptor, the half-maximal effective concentration (EC50) is 41 nM. `N#Cc1cc(OC(F)(F)F)cc(-c2nc(-c3ccc4c(c3)cc3n4CCC3CC(=O)O)no2)c1` (single isomer, unassigned) [Compound 2 (Enantiomer 1), 2-(7-(5-(3-Cyano-5-(trifluoromethoxy)phenyl)-1,2,4-oxadiazol-3-yl)-2,3-dihydro-1H-pyrrolo[1,2-a]indol-1-yl)acetic Acid]: the “agonist activity on S1P3 receptor (intracellular calcium)” value on S1P3 receptor is “substantially little to no activity; also recorded: no or substantially no agonist activity”. As for `N#Cc1cc(OC(F)(F)F)cc(-c2nc(-c3ccc4c(c3)cc3n4CCC3CC(=O)O)no2)c1` (racemic) [Compound 2, 2-(7-(5-(3-Cyano-5-(trifluoromethoxy)phenyl)-1,2,4-oxadiazol-3-yl)-2,3-dihydro-1H-pyrrolo[1,2-a]indol-1-yl)acetic Acid], at S1P1 receptor, the EC50 is 10 nM. For the compound `O=C(O)CC1CCn2c1cc1cc(-c3noc(-c4cc(C(F)(F)F)cc(C(F)(F)F)c4)n3)ccc12` (stereo not shown) [Compound 1, 2-(7-(5-(3,5-Bis(trifluoromethyl)phenyl)-1,2,4-oxadiazol-3-yl)-2,3-dihydro-1H-pyrrolo[1,2-a]indol-1-yl)acetic Acid], the “peripheral lymphocyte lowering (peripheral blood lymphocyte count vs vehicle)” value in the data set with BALB/c mice was “exhibited activity for inducing peripheral lymphocyte lowering”. Besides, the concentration for a half-maximal effect (EC50) at S1P1 receptor is 7.2 nM.

Usually EC50 stands for the concentration giving half of the maximal effect.
